Measurements reported in ChEMBL document CHEMBL1201862, “PubChem BioAssay data set” (2004).
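96-well plates; 48 h exposure; 5 concentrations. Endpoints by linear interpolation between flanking doses. Not reached: highest tested concentration assigned. Abbreviation: GI50, concentration required for 50% inhibition of growth.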 Calls of active or inactive are those of the source. Cut-off read from the data, not from the text of the source: active = GI50 up to about 1.1 µM and inactive = higher.

How the values were obtained:
Experiment in all cases: NCI tumour cell line growth inhibition, 48 h
A498 = test system: A498
DU-145 = test system: DU-145
EKVX = test system: EKVX
HCT-116 = test system: HCT-116
HL-60 = test system: HL-60
K562 = test system: K562
MDA-MB-435 = test system: MDA-MB-435
NCI-H226 = test system: NCI-H226
OVCAR-3 = test system: OVCAR-3
OVCAR-8 = test system: OVCAR-8
RPMI-8226 = test system: RPMI-8226
RXF 393 = test system: RXF 393
SK-MEL-2 = test system: SK-MEL-2
SK-MEL-5 = test system: SK-MEL-5
SK-OV-3 = test system: SK-OV-3
SNB-19 = test system: SNB-19
SNB-75 = test system: SNB-75
UACC-257 = test system: UACC-257
UACC-62 = test system: UACC-62
UO-31 = test system: UO-31

SMILES	GI50 (A498)	GI50 (DU-145)	GI50 (EKVX)	GI50 (HCT-116)	GI50 (HL-60)	GI50 (K562)	GI50 (MDA-MB-435)	GI50 (NCI-H226)	GI50 (OVCAR-3)	GI50 (OVCAR-8)	GI50 (RPMI-8226)	GI50 (RXF 393)	GI50 (SK-MEL-2)	GI50 (SK-MEL-5)	GI50 (SK-OV-3)	GI50 (SNB-19)	GI50 (SNB-75)	GI50 (UACC-257)	GI50 (UACC-62)	GI50 (UO-31)
Cc1cn(CCC(N)C(=O)O)c(=O)[nH]c1=O (stereo not given)	> 100 µM (inactive)	> 100 µM (inactive)	> 100 µM (inactive)	> 100 µM (inactive)	> 100 µM (inactive)	> 100 µM (inactive)	> 100 µM (inactive)	> 100 µM (inactive)	> 100 µM (inactive)	> 100 µM (inactive)	> 100 µM (inactive)	> 100 µM (inactive)	> 100 µM (inactive)	> 100 µM (inactive)	> 100 µM (inactive)	> 100 µM (inactive)	> 100 µM (inactive)	> 100 µM (inactive)	> 100 µM (inactive)	> 100 µM (inactive)
CCOC(=O)CCC(C(=O)OCC)n1nnc2ccc(Nc3c(C)[n+]([O-])c4ccc(Cl)cc4[n+]3[O-])cc21 (stereo not given)	> 100 µM (inactive)	50.6 µM (inactive)	17.1 µM (inactive)	40.2 µM (inactive)	39.2 µM (inactive)	45.8 µM (inactive)	51.9 µM (inactive)	22.4 µM (inactive)	32.1 µM (inactive)	39.2 µM (inactive)	28.6 µM (inactive)	26.9 µM (inactive)	30.9 µM (inactive)	39.4 µM (inactive)	60.1 µM (inactive)	> 100 µM (inactive)	31.4 µM (inactive)	19.2 µM (inactive)	30.4 µM (inactive)	42.2 µM (inactive)
OCCc1ccsc1-c1sc(-c2cc(CCO)c(-c3sc(-c4cc(CCO)c(-c5sccc5CCO)s4)cc3CCO)s2)cc1CCO	2 µM (inactive)	1.34 µM (inactive)	1.26 µM (inactive)	0.889 µM (active)	1.53 µM (inactive)	1.14 µM (inactive)	1.32 µM (inactive)	1.65 µM (inactive)	1.38 µM (inactive)	1.55 µM (inactive)	0.344 µM (active)	0.454 µM (active)	1.68 µM (inactive)	1.13 µM (inactive)	1.64 µM (inactive)	1.7 µM (inactive)	1.27 µM (inactive)	1.13 µM (inactive)	1.56 µM (inactive)	1.29 µM (inactive)
CO[P@]1(=O)O[C@@H](c2ccccc2)[C@H](O)[C@]1(O)c1ccccc1	> 100 µM (inactive)	> 100 µM (inactive)	> 100 µM (inactive)	> 100 µM (inactive)	> 100 µM (inactive)	> 100 µM (inactive)	> 100 µM (inactive)	> 100 µM (inactive)	> 100 µM (inactive)	> 100 µM (inactive)	> 100 µM (inactive)	> 100 µM (inactive)	> 100 µM (inactive)	> 100 µM (inactive)	> 100 µM (inactive)	> 100 µM (inactive)	> 100 µM (inactive)	> 100 µM (inactive)	> 100 µM (inactive)	> 100 µM (inactive)
COc1cc(CCNC2=CC(=O)c3ncccc3C2=O)ccc1O	16.6 µM (inactive)	3.6 µM (inactive)	8.85 µM (inactive)	3.17 µM (inactive)	3.01 µM (inactive)	2.21 µM (inactive)	1.44 µM (inactive)	2.7 µM (inactive)	1.22 µM (inactive)	2.41 µM (inactive)	6.76 µM (inactive)	5.45 µM (inactive)	2.53 µM (inactive)	0.54 µM (active)	12.6 µM (inactive)	3.48 µM (inactive)	1.63 µM (inactive)	1.9 µM (inactive)	1.96 µM (inactive)	5.3 µM (inactive)
COc1cc2c(c(O)c1OC)-c1c(cc(OC)c(OC)c1OC)CC(C)C(C)C2 (stereo not given) [GOMISIN K3]	35.1 µM (inactive)	45.8 µM (inactive)	47.3 µM (inactive)	34.7 µM (inactive)	25.5 µM (inactive)	38.8 µM (inactive)	50 µM (inactive)	42.8 µM (inactive)	47.1 µM (inactive)	51.9 µM (inactive)	39.4 µM (inactive)	30.9 µM (inactive)	45.2 µM (inactive)	35.6 µM (inactive)	82.4 µM (inactive)	60.8 µM (inactive)	34.3 µM (inactive)	25.6 µM (inactive)	43.1 µM (inactive)	29.4 µM (inactive)
